From PubChem BioAssay (NCI) come the findings set out here.

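Method: 48-hour compound exposure of cells in 96-well plates, five concentrations, linear interpolation of endpoints. At the TGI there is no net growth.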 A value given as a limit tells only on which side of the number the result lay.

Some test systems named below: SK-OV-3 ovarian; SF-539 CNS; SF-295 CNS; SK-MEL-5 melanoma; HOP-62 NSCLC; MCF7 breast; HOP-92 NSCLC; EKVX NSCLC; A498 renal; HT29 colon.
Common to all, as to assay: NCI anticancer screen, dose series, 48 h

Regarding `C/C(=N\O)c1cccc[n+]1Cc1ccccc1`, the TGI in the assay on SK-OV-3 ovarian, in the assay with SF-539 CNS, with SF-295 CNS, in the assay on SK-MEL-5 melanoma, with HOP-62 NSCLC and in the assay with MCF7 breast was > 100 µM throughout. Also, the TGI in the assay with HOP-92 NSCLC, in the assay on EKVX NSCLC, in the assay on A498 renal and with HT29 colon was > 100 µM in each case.

Turning to `COc1ccccc1C(=O)NCC1CCCN2CCCCC12` (stereo not drawn), the TGI in the assay with SK-OV-3 ovarian, in the assay on SF-539 CNS, in the assay on SF-295 CNS, in the assay with SK-MEL-5 melanoma, in the assay with HOP-62 NSCLC and in the assay with MCF7 breast was > 100 µM throughout. Also, the TGI in the assay with HOP-92 NSCLC, in the assay on EKVX NSCLC, in the assay with A498 renal and with HT29 colon was > 100 µM in each case.

Take `O=c1[nH]c(NCc2ccc(Cl)cc2)nc2nc[nH]c12`: the TGI in the assay with SK-OV-3 ovarian, in the assay with SF-539 CNS, in the assay on SF-295 CNS, in the assay with SK-MEL-5 melanoma, in the assay with HOP-62 NSCLC and in the assay with MCF7 breast was > 100 µM in each case. The TGI in the assay on HOP-92 NSCLC, in the assay on EKVX NSCLC, in the assay on A498 renal and with HT29 colon was > 100 µM in each case.

As for `Cc1nc2sc(C(=O)c3ccc(Cl)cc3)c(N)c2c(-c2ccccc2Cl)c1C(=O)Nc1ccccc1`, the TGI in the assay on SK-OV-3 ovarian worked out at 31.3 µM; with SF-539 CNS, 30.5 µM; with SF-295 CNS, 47.9 µM; with SK-MEL-5 melanoma, 36.6 µM; with HOP-62 NSCLC it was 37 µM; in the assay on MCF7 breast, 53.8 µM. The TGI in the assay on HOP-92 NSCLC came to 15.9 µM; in the assay with EKVX NSCLC, 59 µM; in the assay on A498 renal, 48 µM; in the assay on HT29 colon, 31.3 µM.

Turning to `CCOC(=O)c1c(SC(=O)c2ccc(OC)cc2)n(-c2ccccc2)c(=S)n(-c2ccccc2)c1=O`, the TGI in the assay with SK-OV-3 ovarian was > 100 µM; in the assay with SF-539 CNS, 42.2 µM; in the assay on SF-295 CNS, > 100 µM; with HOP-62 NSCLC, > 100 µM; in the assay on MCF7 breast it was > 100 µM; in the assay on HOP-92 NSCLC, > 100 µM. Besides, the TGI with EKVX NSCLC, with A498 renal and in the assay on HT29 colon was > 100 µM in each case.

As for `C=C1C(=O)O[C@H]2C[C@@H]1[C@@H](O)[C@H](O)[C@@H](C)CCCC(C)=CCC[C@@]2(C)O`, the TGI was > 100 µM in the assay with SK-OV-3 ovarian; 30.1 µM in the assay on SF-539 CNS; > 100 µM in the assay with SF-295 CNS; 48.4 µM with SK-MEL-5 melanoma; > 100 µM in the assay with HOP-62 NSCLC; 26.5 µM with MCF7 breast. Besides, the TGI in the assay with HOP-92 NSCLC was 99.5 µM; with EKVX NSCLC, > 100 µM; with A498 renal, > 100 µM.

As for `COc1cc(-c2c3c(cc4c2OCO4)[C@@H](Nc2ccc(-c4ccc(-c5ccc(N[C@@H]6c7cc8c(cc7C(c7cc(OC)c(O)c(OC)c7)[C@H]7C(=O)OC[C@H]67)OCO8)cc5)cc4)cc2)[C@H]2COC(=O)[C@@H]2C3)cc(OC)c1O` (stereo partly drawn), the TGI came out at 10.1 µM with SK-OV-3 ovarian; 3.82 µM in the assay on SF-295 CNS; 7.58 µM with SK-MEL-5 melanoma; 8.81 µM in the assay with HOP-62 NSCLC; 12.1 µM in the assay with MCF7 breast; 29.4 µM in the assay with HOP-92 NSCLC. In addition, the TGI was 25.2 µM in the assay on EKVX NSCLC, 21.4 µM in the assay with A498 renal and 5.62 µM with HT29 colon.

Consider `COC(=O)C1(SC)C2CCC3C2CCC31` (stereo not drawn), for which the TGI with SK-OV-3 ovarian, in the assay on SF-539 CNS, in the assay on SF-295 CNS, with SK-MEL-5 melanoma, in the assay on HOP-62 NSCLC and in the assay on MCF7 breast was > 100 µM in each case. Further, the TGI with HOP-92 NSCLC, in the assay on EKVX NSCLC and in the assay with A498 renal was > 100 µM in each case.

As to `CCCCOC(=O)C1CC[C@H]2[C@@H]3CCc4cc(OC(=O)c5cccc6c(=O)c7ccccc7[nH]c56)ccc4[C@H]3CC[C@]12C` (stereo partly drawn), the TGI with SK-OV-3 ovarian came to 18 µM; in the assay on SF-295 CNS, 16.1 µM; in the assay with SK-MEL-5 melanoma it was 12.8 µM; with HOP-62 NSCLC, 16.4 µM; in the assay with MCF7 breast it was 25.8 µM; with HOP-92 NSCLC it was 16.5 µM. Moreover, the TGI with EKVX NSCLC is 8.77 µM; in the assay on A498 renal, 16.7 µM; in the assay with HT29 colon, 18.6 µM.

In the case of `O=C1C(c2c(O)[nH]c3ccc(Br)cc23)=Nc2ccc(Br)cc21`, the TGI in the assay on SK-OV-3 ovarian is 90.8 µM; with SF-295 CNS it was > 100 µM; with SK-MEL-5 melanoma, > 100 µM; with HOP-62 NSCLC, > 100 µM; in the assay on MCF7 breast it was 43.1 µM; in the assay on HOP-92 NSCLC, > 100 µM. Moreover, the TGI with EKVX NSCLC, in the assay with A498 renal and in the assay with HT29 colon was > 100 µM each time.

For `CC(C)=CC(=O)c1[nH]c2ccccc2c1CC(=O)NCCc1cncn1C`, the TGI in the assay with SK-OV-3 ovarian, in the assay on SF-539 CNS, in the assay with SF-295 CNS, in the assay with SK-MEL-5 melanoma, in the assay with MCF7 breast and in the assay with HOP-92 NSCLC was > 100 µM each time. Moreover, the TGI is 83.4 µM in the assay with EKVX NSCLC, 91.9 µM in the assay on A498 renal and > 100 µM in the assay with HT29 colon.
